Literature values, collected in patent US20050042196A1, “Antimicrobial phenol containing cyanoacrylate compositions” (priority 2003, published 2005).

Conditions: aqueous

[O-][Cl+3]([O-])([O-])O [perchloric acid]
pKa: −5
